The target of test [1] is T1, electric eel acetylcholinesterase (eeAChE) (Electrophorus electricus, UniProt O42275).
T1 construct: purchased J&K Scientific Co. (Beijing, China)
Kind of test: Inhibition of acetylcholinesterase (modified Ellman's method). As to conditions: 10^−3 M of the compound; pH 7.4, 37 °C. The class given is biochemical. The protocol: (§1) In the study of cholinesterase inhibitors, the inhibitory effect of the compounds (the NSAIDs and their complexes 1–3) against AChE and BuChE was examined using a modified methodology based on Ellman’s method.
(§2) The ability of the compounds to inhibit AChE and BuChE was evaluated using UV-vis spectroscopy. All the assays were carried out in a 0.1M NaH2PO4/Na2HPO4 buffer at a pH = 7.4. Enzyme solutions were prepared with 2.0 U/mL for AChE and 3.0 U/mL for BuChE. A reaction mixture containing 20 μL of phosphate buffer, 100 μL of DTNB (1-mM), and 40 μL of the enzyme (AChE and BuChE) was incubated with 20 μL of the compounds at various concentrations at 37 °C for 15 min. The reaction was started by the addition of the substrate (20-μL) of ATCI or BTCI solution (1-mM), respectively, and incubation for additional 3 min.
(§3) The enzyme activity was determined by measuring the increase in absorbance at 2-min intervals at 412 nm at 37 °C (ε = 14,150 M^−1cm^−1).
The rate of inhibition of each enzyme by the compounds was calculated according to the following expression:(1) I%=(1−VB/VA)×100 where VB and VA indicate the absorbance measured for ChEs in the presence and absence of inhibitors, respectively. The results are expressed as the average of three repetitions of the tests performed and the standard deviation was less than 3% of the mean. The selectivity index (SI), defined as IC50 BuChE/IC50 AChE, was also calculated. Neostigmine methyl sulfate was used as the appropriate standard.
A general note: Ellman's reagent forms a yellow product with free thiols.

Test [2] is described as follows: Competition with DMSO for hydroxyl radicals. Format: biochemical. As to conditions: compound 0.1 mM; 30 min, 37 °C, pH 7.4. The protocol: The antioxidant activity of complexes 1–3 was evaluated via their ability to scavenge the free radicals DPPH, hydroxyl, and ABTS. Each experiment was performed in triplicate and the standard deviation of absorbance was less than 10% of the mean.
Competition of the tested compounds with DMSO for hydroxyl radicals: The hydroxyl radicals generated by the Fe^3+/ascorbic acid system were detected according to Nash by the determination of formaldehyde produced from the oxidation of DMSO [155]. The reaction mixture contained EDTA (0.1 mM), Fe^3+ (167 μM), DMSO (33 mM) in phosphate buffer (50 mM, pH 7.4), complexes 1–3 (concentration 0.1 mM), and ascorbic acid (10 mM). After a 30-min incubation at 37 °C, the reaction was stopped with CCl3COOH (17% w/v) and the absorbance at λ = 412 nm was measured. Trolox was used as a reference compound. The competition of the compounds with DMSO for •OH, generated by the Fe^3+/ascorbic acid system, expressed as the percentage of inhibition of formaldehyde production, was used for the evaluation of their hydroxyl radical-scavenging activity (OH%).

In test [3] the target is T2, bovine serum albumin (BSA) (Bos taurus, UniProt P02769).
T2 construct: purchased Sigma-Aldrich Co. (St. Louis, MO, USA)
T2 sequence (P02769 25-607): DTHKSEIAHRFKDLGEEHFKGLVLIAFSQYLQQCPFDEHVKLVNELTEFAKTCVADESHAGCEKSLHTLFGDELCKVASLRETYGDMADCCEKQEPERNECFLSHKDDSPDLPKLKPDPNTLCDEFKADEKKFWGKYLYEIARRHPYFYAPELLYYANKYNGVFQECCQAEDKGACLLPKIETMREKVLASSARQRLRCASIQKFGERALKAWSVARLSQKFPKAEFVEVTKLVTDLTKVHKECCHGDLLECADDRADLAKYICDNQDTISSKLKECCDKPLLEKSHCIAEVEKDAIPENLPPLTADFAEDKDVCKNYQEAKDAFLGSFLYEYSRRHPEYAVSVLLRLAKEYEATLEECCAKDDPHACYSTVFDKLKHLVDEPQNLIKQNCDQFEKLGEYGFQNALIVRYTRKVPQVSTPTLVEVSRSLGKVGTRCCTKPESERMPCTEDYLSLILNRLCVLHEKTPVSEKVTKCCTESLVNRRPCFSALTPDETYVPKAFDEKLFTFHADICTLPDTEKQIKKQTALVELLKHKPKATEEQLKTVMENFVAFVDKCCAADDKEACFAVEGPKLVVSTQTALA
The experiment in a line: BSA fluorescence emission quenching (albumin binding). As to conditions: for ΔI/Io (%) quenching of BSA fluorescence: BSA 3 μM, λex 295 nm, λem 343 nm; for K albumin-binding constant (BSA): Scatchard equation; for Kq albumin-quenching constant (BSA): Stern–Volmer, τo = 10^−8 s; for relative BSA fluorescence emission intensity (I/Io, %) remaining: λem,max = 343 nm, up to, % of the initial BSA fluorescence. The protocol:
The albumin-binding study for complexes 1–3 was performed via fluorescence emission quenching experiments using BSA (3 μM) or HSA (3 μM), respectively, in a buffer solution (containing 15-mM trisodium citrate and […] at pH 7.0). The quenching of the emission intensity of tryptophan residues of BSA at 343 nm or HSA at 351 nm was monitored using complexes 1–3 as quenchers with increasing concentrations. The fluorescence emission spectra were recorded in the range of 300–500 nm, with an excitation wavelength of 295 nm. The quantitative studies of the serum albumin fluorescence spectra were performed after correction by subtracting the spectra of the compounds.
The extent of the inner-filter effect can be roughly estimated with the following formula:(2) Icorr=Imeas×10^ε(λexc)cd/2×10^ε(λem)cd/2 where Icorr = corrected intensity, Imeas = the measured intensity, c = the concentration of the quencher, d = the cuvette (1 cm), ε(λexc), and ε(λem) = the ε of the quencher at the excitation and the emission wavelength, respectively, as calculated from the UV-vis spectra of the complexes.
The Stern–Volmer and Scatchard graphs are used in order to study the interaction of a quencher with serum albumins. The Stern–Volmer quenching equation is used:(3) Io/I=1+Kq×τ0×[Q]=1+KSV×[Q] where Io = the initial tryptophan fluorescence intensity of SA, I = the tryptophan fluorescence intensity of SA after the addition of the quencher, Kq = the quenching constants of SA, KSV = the Stern–Volmer constant, τo = the average lifetime of SA without the quencher, and [Q] = the concentration of the quencher. The value of KSV (M^−1) can be obtained by the slope of the diagram Io/I versus [Q]. Taking τo = 10^−8 s as the fluorescence lifetime of tryptophan in SA, the value of Kq (M^−1s^−1) is calculated from the equation:(4) KSV=Kq×τo and from the Scatchard equation [130]:(5) ΔI/Io/[Q]=n×K−K×ΔI/Io where n is the number of binding sites per albumin and K is the SA-binding constant, K (in M^−1) is calculated from the slope in plots (ΔI/Io)/[Q] versus (ΔI/Io), and n is given by the ratio of y-intercept to the slope.

Test [4] addresses T3, equine serum butyrylcholinesterase (eqBuChE) (Equus caballus, UniProt P81908).
T3 construct: purchased J&K Scientific Co. (Beijing, China); host or cells: equine serum (by the product's name)
The experiment in a line: Inhibition of butyrylcholinesterase (modified Ellman's method). The following applies: for BuChE (I%) inhibition rate: 10^−3 M of the compound, pH 7.4, 37 °C; for SI (selectivity index = IBuChE/IAChE): ratio of inhibition rates at 10^−3 M. Format: biochemical. The protocol: as §1, §2, §3
The rate of inhibition of each enzyme by the compounds was calculated according to the following expression:(1) I%=(1−VB/VA)×100 where VB and VA indicate the absorbance measured for ChEs in the presence and absence of inhibitors, respectively. […] Neostigmine methyl sulfate was used as the appropriate standard.

T3 sequence (P81908 whole entry): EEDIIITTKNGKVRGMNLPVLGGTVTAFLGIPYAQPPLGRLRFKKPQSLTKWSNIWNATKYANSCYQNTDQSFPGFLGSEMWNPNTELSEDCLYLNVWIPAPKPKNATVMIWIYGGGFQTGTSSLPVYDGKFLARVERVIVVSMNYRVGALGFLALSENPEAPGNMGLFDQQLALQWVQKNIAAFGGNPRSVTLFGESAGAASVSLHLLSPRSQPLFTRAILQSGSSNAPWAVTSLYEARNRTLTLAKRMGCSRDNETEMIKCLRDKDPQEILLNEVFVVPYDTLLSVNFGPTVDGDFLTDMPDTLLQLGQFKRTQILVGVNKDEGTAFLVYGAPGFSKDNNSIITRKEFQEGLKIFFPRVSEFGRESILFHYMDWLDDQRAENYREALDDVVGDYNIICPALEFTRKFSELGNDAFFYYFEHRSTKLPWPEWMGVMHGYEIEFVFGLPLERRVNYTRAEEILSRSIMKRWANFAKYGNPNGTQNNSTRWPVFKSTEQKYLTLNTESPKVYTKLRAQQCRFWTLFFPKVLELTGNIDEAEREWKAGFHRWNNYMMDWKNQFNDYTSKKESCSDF
T1 sequence (O42275 24-633): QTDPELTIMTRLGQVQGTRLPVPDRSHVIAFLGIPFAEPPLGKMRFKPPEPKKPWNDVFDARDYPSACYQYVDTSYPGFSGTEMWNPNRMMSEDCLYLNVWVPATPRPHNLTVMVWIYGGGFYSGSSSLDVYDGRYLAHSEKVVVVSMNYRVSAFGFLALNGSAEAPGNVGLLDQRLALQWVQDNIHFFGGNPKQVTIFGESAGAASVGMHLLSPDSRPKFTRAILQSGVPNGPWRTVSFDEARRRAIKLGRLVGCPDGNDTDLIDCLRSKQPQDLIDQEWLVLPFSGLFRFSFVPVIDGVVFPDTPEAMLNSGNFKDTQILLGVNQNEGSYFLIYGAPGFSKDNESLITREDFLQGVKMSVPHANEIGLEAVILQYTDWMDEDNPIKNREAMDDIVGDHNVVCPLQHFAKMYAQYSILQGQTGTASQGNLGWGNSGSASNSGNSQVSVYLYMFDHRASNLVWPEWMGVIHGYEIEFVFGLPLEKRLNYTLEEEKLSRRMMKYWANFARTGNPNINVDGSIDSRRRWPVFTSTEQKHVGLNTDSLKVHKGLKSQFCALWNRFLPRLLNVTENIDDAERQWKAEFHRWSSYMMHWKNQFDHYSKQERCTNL

“[Fe3O(dicl)6(MeOH)3][FeCl4]·Hdicl·1.5MeOH∙H2O [Complex 3]”: the “AChE (I%) inhibition rate” value in test [1] came out at 3.55 ± 1.26%. Moreover, in test [2], the “OH% (competition % with DMSO for hydroxyl radical)” value came to 94.31 ± 0.78%. Also, in test [3], the “ΔI/Io (%) quenching of BSA fluorescence” value is reported as 97.6%; the “K albumin-binding constant (BSA)” value was 5.44 (±0.05) × 10^5 M^−1; the “Kq albumin-quenching constant (BSA)” value is 8.45 (±0.31) × 10^13 M^−1s^−1; the “relative BSA fluorescence emission intensity (I/Io, %) remaining” value is on record as 2.4%. Besides, in test [4], the “BuChE (I%) inhibition rate” value stood at 76.65 ± 1.95% and the “SI (selectivity index = IBuChE/IAChE)” value was 21.59.

On to [Fe3O(dicl)6(py)3]Cl∙py [Complex 2], for which, in test [1], the “AChE (I%) inhibition rate” value is 3.56 ± 0.11%. Moreover, the “OH% (competition % with DMSO for hydroxyl radical)” value in test [2] stood at 87.89 ± 0.84%. In test [3], the “ΔI/Io (%) quenching of BSA fluorescence” value is 92.5%; the “K albumin-binding constant (BSA)” value is 6.09 (±0.31) × 10^5 M^−1; the “Kq albumin-quenching constant (BSA)” value was 8.70 (±0.43) × 10^13 M^−1s^−1; the “relative BSA fluorescence emission intensity (I/Io, %) remaining” value came to 7.5%. Besides, in test [4], the “BuChE (I%) inhibition rate” value is on record as 74.36 ± 1.40% and the “SI (selectivity index = IBuChE/IAChE)” value was determined as 20.89.

(Values after publication PMC10094617, “Iron(III) Complexes with Non-Steroidal Anti-Inflammatory Drugs: Structure, Antioxidant and Anticholinergic Activity, and Interaction with Biomolecules” (International Journal of Molecular Sciences, 2023).)
